For one data set, the target named is T1, BRD4 (Homo sapiens, UniProt O60885).
T1 construct: endogenous in cells; host or cells: MV4-11
Kind of data set: BRD4 Western Blotting in MV4-11 cells. In kind it is cell-based. As for the experimental part: Cells were then collected by centrifugation, washed one time with cold PBS, supernatants aspirated and cell pellets lysed with 4° C. RIPA lysis buffer containing a protease/phosphatase inhibitor cocktail. The total protein concentrations of cell lysates were determined by BCA Protein Assay kit. Samples were normalized for equivalent protein concentrations, 5× loading buffer added and heated to 100° C. for 10 min and cooled to room temperature. 20 μl of each sample/well was loaded on a SDS-PAGE gel and electrophoresed for 20 min at 80 V, then 120 V for 1.5 hr. Gels were then electroblotted to nitrocellulose membranes using a wet-transfer method at 250 mA for 2.5 hr. Membranes were incubated with blocking buffer for 1 hr and washed 3 times with TBST for 5 min. Then membranes were incubated with anti-BRD4 (Cell Signaling Technology, #13440) and anti-beta-Actin (Cell Signaling Technology, #3700) antibodies diluted in blocking buffer per the manufacturer's recommendation at 4° C. overnight. After washing 3 times, blots were incubated with the appropriate labeled secondary antibody for 1 hr at room temperature and washed again. Images were read on a LI-COR and the optical density values of bands determined by ImageJ software. Data was analyzed using GraphPad Prism 7.0.
On the technique in general: Immunoblotting shows a protein as a band on a membrane.

Data set [1] in a line: Pharmacokinetics and Tissue Distribution in the MV4-11 xenograft model. The class given is in vivo, mice. The settings on record: female, CB-17 SCID, mouse, 5 mg/kg single intravenous dose. As for the experimental part: Pharmacokinetics and Tissue Distribution
15 female CB-17 SCID mice (treated in accordance with AAALAC animal welfare guidelines) were weighed and administered 5 mg/kg of compound 074 by a single intravenous injection. 0.10 mL of blood was collected from each mouse by submandibular vein and sodium heparin was added as an anticoagulant. Samples were collected before compound administration, and at 1 hr, 6 hr 24 hr and 48 hr time points after administration, with 3 mice sampled per time point. After collection, samples were placed on ice and the animals sacrificed to collect tumor and normal tissues. The method development and analysis of all samples were performed by the analytical laboratory at Shanghai Medicilon Inc. Intra-day accuracy evaluation of samples for quality control was carried out during sample analysis and a quality control accuracy of more than 66.7% of samples was required between to be 80-120%. Pharmacokinetic parameters were calculated using Phoenix WinNonlin7.0 software.

Another data set has as its target T2, BRD4 (BD1+BD2) (Homo sapiens, UniProt O60885).
T2 construct: 1.8 μg/ml recombinant BRD4 (BD1+BD2 domains) protein
The settings on record: read-out: BRD4 Binding Potency.

The test system of the next data set is ERBB2. Nature of the data set: HSP90 Client Protein Degradation Flow Cytometry Assay, ERBB2 in BT-474 cells. In kind it is cell-based, human. The protocol: MV4-11 cells were plated in a 24-well tissue culture plate at a density of 350,000 cells/450 μL/well and incubated in 37° C./5% CO2 for 1 hr. Cells were then treated with compounds at various concentrations and incubated in 37° C./5% CO2 for 24 hr. Cells were harvested, washed once, counted and 200 μL of 1% paraformaldehyde/PBS was added and incubated for 15 min at room temperature. 200 μL of 1×PBS/0.4% Triton X-100 was added and incubated for 15 min at 4° C. Cells were washed three times and resuspended in 50 μL of 1×PBS/0.2% Triton X-100. 2 μL/10^6 cells of anti-BRD4 antibody (ABCAM, #128874) was added and mixed by pipetting up and down. Cells were incubated for 30 min at room temperature in the dark, washed three times and resuspended in 50 μL of 1×PBS/0.2% Triton X-100. Goat anti-rabbit IgG H&L antibody (1:2000 dilution) was added and mixed by pipetting up and down and incubated for 30 min at room temperature in the dark. Finally, cells were washed three times and resuspended in 200 μL of PBS for flow cytometric analysis.
Similar flow cytometry experiments for ERBB2 in BT-474 human breast carcinoma cells (ATCC, #HTB-20) and IGF1R, EGFR and RAF1 in HEK-293 human embryonic kidney (ATCC, #CRL-1573) were performed using anti-ERBB2 (R&D, #FAB1129P), anti-IGF1R (Cell Signaling Technology, #9750), anti-EGFR (Cell Signaling Technology, #139690) and anti-RAF1 (ABCAM, #ab181115) antibodies.

In general, Cmax refers to the peak of the concentration-time curve. One may read the Tmax as the time at which the peak concentration occurs. As a reminder, the half-life is the time in which the quantity being followed falls by half. A lower half-life goes with fast loss. One may read the AUC(0-inf) as total exposure, with the tail of the curve extrapolated. Take `Cc1sc2c(c1C)C(c1ccc(Cl)cc1)=N[C@@H](CC(=O)N1CCC(CN3CCN(Cc4ccc(-n5c(O)nnc5-c5cc(C(C)C)c(O)cc5O)cc4)CC3)CC1)c1nnc(C)n1-2.Cl` [Compound 74, (S)-2-(4-(4-chlorophenyl)-2,3,9-trimethyl-6H-thieno[3,2-f][1,2,4]triazolo[4,3-a][1,4]diazepin-6-yl)-1-(4-((4-(4-(3-(2,4-dihydroxy-5-isopropylphenyl)-5-hydroxy-4H-1,2,4-triazol-4-yl)benzyl)piperazin-1-yl)methyl)piperidin-1-yl)ethan-1-one hydrochloride]: the “BRD4 degradation by western blotting with proteasome inhibitor bortezomib” value on BRD4 (MV4-11 cells treated with both compound 074 and bortezomib) was “BRD4 degradation was blocked”. Further, the “BRD4 degradation by western blotting” value at BRD4 (MV4-11 cells, 24 hr, 100 and 300 nM) is on record as “BRD4 degradation was observed”. The DC50 on BRD4 (MV4-11 cells, read-out: IC50 value for BRD4 degradation determined by western blotting) is 59 nM. The Cmax in data set [1] (heart) worked out at 1640 ng/g; in data set [1] (liver), 5040 ng/g; in data set [1] (lung) it was 2030 ng/g; in data set [1] (plasma), 498 ng/mL; in data set [1] (tumor) it was 462 ng/g. Moreover, the Tmax in data set [1] (heart), in data set [1] (liver), in data set [1] (lung), in data set [1] (plasma) and in data set [1] (tumor) was 1 h each time. The half-life in data set [1] (heart) is 3.7 h; in data set [1] (liver), 3.37 h; in data set [1] (lung), 6.94 h; in data set [1] (plasma) it was 3.92 h; in data set [1] (tumor) it was 32.1 h. Also, the AUC(0-inf) in data set [1] (plasma) is 3020 ng·h/mL. Moreover, the IC50 at BRD4 (BD1+BD2) was 100 to 1000 nM; in the data set on ERBB2 it was 340 nM.

These data come from patent publication US20220168427A1 (Ranok Therapeutics (Hangzhou) Co. Ltd., priority 2019, published 2022).
